Where two headings read alike, the source gives them in different places.
Assays:
[1] = tested on: caspase 3/7; experiment: Caspase 3/7 activity (FAM-FLICA, flow cytometry), MDA-MB-231; type: cell-based, human; conditions: 24 h
Method: The FAM-FLICA® Caspase Assay kits (all from ImmunoChemistry Technologies, Bloomington, MN, USA) and flow cytometer (BD FACSCanto II, BD Biosciences Systems, San Jose, CA, USA) were used to evaluate the activity of caspase 3/7, 8, and 9. MCF-7 and MDA-MB-231 cells were treated with selenoesters under the study (EDAG-1 and EDAG-8) and a reference agent (cisplatin) at two different concentrations (0.5 and 1 µM; treatment duration: 24 h). Following this, cells were collected, washed twice with cold PBS, and resuspended in an Apoptosis Wash Buffer to a final concentration of 5 × 10^5 cells/mL. In the next step, 290 µL each of cell suspension was taken and transferred into tubes. Then 10 µL of FLICA solution diluted immediately before use (1:5 v/v, using PBS) was added to the cells, mixed by pipetting, and incubated in the dark for 1 h at 37 °C. After this time, the cells were washed twice with 2 mL Apoptosis Wash Buffer, centrifuged, and resuspended in 300 µL of the buffer. Thus, prepared samples were immediately analyzed using a BD FACSCanto II flow cytometer (10,000 events) with the FACSDiva 6.0 software (both from BD Biosciences Systems, San Jose, CA, USA). The equipment calibration was carried out using the BD Cytometer Setup and Tracking Beads (BD Biosciences, San Diego, CA, USA).

[2] = tested on: MCF-10A normal human breast epithelial cells; experiment: MTT cytotoxicity test, MCF-10A; type: cell-based; conditions: 24 h incubation, read-out: IC50, cell viability (MTT)
Method: MCF-7 and MDA-MB-231 human breast cancer cell lines, as well as MCF-10A normal human breast epithelial cells, were acquired from the American Type Culture Collection (ATCC, Manassas, VA, USA). The characteristics of the breast cancer cell lines used in this study are compared in Table 1. MCF-7 and MDA-MB-231 cells were cultured in Dulbecco’s modified Eagle’s medium (Gibco, San Diego, CA, USA), while MCF-10A cells were cultured in the mammary epithelial cell growth medium with the following supplements: BPE, hEGF, insulin, hydrocortisone, GA-1000 (Lonza, Basel, Switzerland). All media were complemented by 10% of fetal bovine serum (FBS) and 1% of the following antibiotics: penicillin and streptomycin (both Gibco, San Diego, CA, USA). The cells were maintained in an incubator that provides the optimal growth conditions for the cell culture: 5% CO2, 37 °C, and humidity in a range of 90–95%. The cells were cultured in 100 mm plates (Sarstedt, Newton, NC, USA). Subsequently, after obtaining a subconfluent cell culture, the cells were detached with 0.05% trypsin with 0.02% EDTA (Gibco, San Diego, CA, USA). […] In this study, cells that obtained 80% confluence were used. The MTT assay was used to determine the cytotoxic effects of the compounds in the study on MCF-7 and MDA-MB-231 breast cancer cells as well as MCF-10A normal human breast epithelial cells based on Carmichael’s method. […] After this time, the medium was removed, and the cell monolayer was washed with warm phosphate-buffered saline (PBS) without calcium and magnesium. In the next step, PBS and MTT solution in PBS (5 mg/mL) were added to each well to obtain a final MTT concentration of 0.5 mg/mL, and then the cells were incubated for 4 h (37 °C temperature, 5% CO2, 90–95% humidity). After the incubation period, the contents of each well were removed, 1 mL of DMSO was added to dissolve the formazan, and then the plate with the added DMSO was mixed for 5–10 min on a microplate shaker (Boeco, Hamburg, Germany). Then, 10 µL of Sorensen’s glycine buffer (a solution of 0.1 M glycine and 0.1 M sodium chloride adjusted to pH 10.5 with 0.1 M sodium hydroxide) was added. The absorbance of the obtained solution was immediately measured at a wavelength of λ = 570 nm using a Thermo Scientific Evolution 201 UV–VIS spectrophotometer (Thermo Fisher Scientific, Waltham, MA, USA). The absorbance result obtained in the control cells (without the addition of the tested compounds) was taken as 100%, while the viability of cells incubated with the tested compounds was presented as a percentage of the control value.

[3] = tested on: MCF-7 breast cancer cells; experiment: DNA biosynthesis assay ([3H]-thymidine incorporation), MCF-7; type: cell-based, human; conditions: read-out: IC50, DNA biosynthesis
Method: The study of the antiproliferative properties (intensity of [^3H]-thymidine incorporation into cell DNA) of the tested derivatives against tested cell lines (MCF-7, MDA-MB-231, MCF-10A) was performed after 24 h incubation with varied concentrations of the tested compounds in the medium (0.5–5 µM) in 6-well plates (baseline seeding density: 5 × 10^5 cells/well). After 24 h the medium was removed, the cells were washed with PBS (Corning, Kennebunk, ME, USA), and a fresh medium was added. After that, the cells were treated with 0.5 µCi of tritium-labeled thymidine (specific activity 7 Ci/mmol) by incubating them with this compound for 4 h under the same conditions as the cell culture. In the first step, the medium was removed, and the cell monolayer was washed twice with 1 mL of 0.05 M Tris-HCl buffer pH 7.4 containing 0.11 M NaCl. To denature proteins, the cells were washed twice with 1 mL of 5% trichloroacetic acid (TCA) solution. Finally, cell lysis was performed by adding 1 mL of 0.1 M sodium hydroxide (NaOH) solution containing 1% sodium dodecyl sulfate (SDS) to each well. After five minutes, the obtained cell lysates were transferred to scintillation vials with 2 mL of scintillation fluid added to them beforehand. Radioactivity was measured using the Scintillation Counter 1900 TR, TRI-CARB (Packard, Perkin Elmer, Inc., San Jose, CA, USA). The intensity of DNA biosynthesis in the analyzed cells was expressed in terms of dpm/well. The result of the radioactivity measurement in the control cells (without the addition of tested compounds) was taken as 100%, while the values of cells incubated with the tested compounds were presented as a percentage of the control value.

CC(=O)C[Se]C(=O)c1cc(C(=O)[Se]CC(C)=O)cc(C(=O)[Se]CC(C)=O)c1 [EDAG-8, Se,Se,Se-tris-(2-oxopropyl) benzene-1,3,5-tris-(carboxyselenoate)]
Active caspase 3/7 ± SD (cells) ([1]; MDA-MB-231, 0.5 μM): 19.7 ± 0.6%
Active caspase 3/7 ± SD (cells) ([1]; MDA-MB-231, 1 μM): 32.2 ± 2.9%
IC50 ([2]; Homo sapiens): 0.51 ± 0.02 µM
IC50 ([3]; Homo sapiens, MCF7, 24 h): 0.96 ± 0.07 µM

CC(=O)C[Se]C(=O)c1ccc(C(=O)[Se]CC(C)=O)cc1 [EDAG-1, Se,Se-bis(2-oxopropyl) benzene-1,4-bis(carboselenoate)]
Active caspase 3/7 ± SD (cells) ([1]; MDA-MB-231, 0.5 μM): 9.2 ± 0.5%
Active caspase 3/7 ± SD (cells) ([1]; MDA-MB-231, 1 μM): 12.5 ± 0.4%
IC50 ([2]; Homo sapiens): 0.41 ± 0.03 µM
IC50 ([3]; Homo sapiens, MCF7, 24 h): 0.79 ± 0.02 µM

N.N.[Cl][Pt][Cl] [Cisplatin, reference compound]
Active caspase 3/7 ± SD (cells) ([1]; MDA-MB-231, 0.5 μM): 5.2 ± 0.5%
Active caspase 3/7 ± SD (cells) ([1]; MDA-MB-231, 1 μM): 5.2 ± 0.6%
IC50 [2]: > 5 µM
IC50 ([3]; MCF-7, 24 h incubation): > 5 µM
